Numbered stars: 1 amine (or outer) side, 2 acyl side, 3 side chain; on linkers, the order of the positions; unused ones are H or OH. Square brackets hold non-standard residues; d marks the D form. Side chains are listed from the residue outwards. Peptide text beside a SMILES is read from it. * marks the point of attachment. C18 diacid = O=C(O)CCCCCCCCCCCCCCCCC(=O)*; γGlu = O=C(O)[C@H](CCC(=O)[*:2])N[*:1]; AEEA = NCCOCCOCC(=O)O; Aib = CC(C)(N)C(=O)O
Tests used:
[1] = Thioflavin T (ThT) fibrillation assay for physical stability; type: physicochemical; conditions: 250 μM in 10 mM HEPES buffer, pH 7.5, 37° C., shaking 960 rpm
Source text: The purpose of this assay was to assess the physical stability of the glucagon derivatives of the invention in aqueous solutions.
Low physical stability of a peptide may lead to amyloid fibril formation, which is observed as well-ordered, thread-like macromolecular structures in the sample, which eventually may lead to gel formation. This has traditionally been measured by visual inspection of the sample. However, that kind of measurement is very subjective and depending on the observer. Therefore, the application of a small molecule indicator probe is much more advantageous. Thioflavin T (ThT) is such a probe and has a distinct fluorescence signature when binding to fibrils [Naiki et al; Anal. Biochem. 1989 177 244-249; LeVine; Methods. Enzymol. 1999 309 274-284].
The time course for fibril formation can be described by a sigmoidal curve with the following expression [Nielsen et al; Biochemistry 2001 40 6036-6046]:
Here, as depicted in FIG. 1, F is the ThT fluorescence at the time t. The constant t0 is the time needed to reach 50% of maximum fluorescence. The two important parameters describing fibril formation are the lag-time calculated by t0−2τ and the apparent rate constant kapp 1/τ.
Samples were prepared freshly before each assay. Each sample composition is described in the legends. The pH of the sample was adjusted to the desired value using appropriate amounts of concentrated NaOH and HCl. Thioflavin T was added to the samples from a stock solution in H2O to a final concentration of 1 μM.
Sample aliquots of 200 μl (250 μM of the glucagon derivative/analogue in 10 mM HEPES buffer, pH 7.5) were placed in a 96 well microtiter plate (Packard OptiPlate™-96, white polystyrene). Usually, four or eight replica of each sample (corresponding to one test condition) were placed in one column of wells. The plate was sealed with Scotch Pad (Qiagen).
Incubation at given temperature, shaking and measurement of the ThT fluorescence emission were done in a Fluoroskan Ascent FL fluorescence plate reader (Thermo Labsystems). The temperature was set to 37° C. and the plate was incubated with orbital shaking adjusted to 960 rpm with an amplitude of 1 mm. Fluorescence measurement was done using excitation through a 444 nm filter and measurement of emission through a 485 nm filter.
Each run was initiated by incubating the plate at the assay temperature for 10 min. The plate was measured every 20 minutes for a desired period of time. Between each measurement, the plate was shaken and heated as described.
After completion of the ThT assay the four or eight replica of each sample was pooled and centrifuged at 20000 rpm for 30 minutes at 18° C. The supernatant was filtered through a 0.22 μm filter and an aliquot was transferred to a HPLC vial.
The concentration of peptide in the initial sample and in the filtered supernatant was determined by reverse phase HPLC using an appropriate standard as reference. The percentage fraction the concentration of the filtered sample constituted of the initial sample concentration was reported as the recovery.
The measurement points were saved in Microsoft Excel format for further processing and curve drawing and fitting was performed using GraphPad Prism. The background emission from ThT in the absence of fibrils was negligible. The data points were typically a mean of four or eight samples.
The data set may be fitted to Eq. (1).

[2] = biological target: T1, human GLP-1 receptor (Homo sapiens, UniProt P43220); experiment: GLP-1 receptor binding, 125I-GLP-1 displacement SPA on isolated membranes; conditions: displacement of 125I-GLP-1 from membranes; read-out: IC50 GLP-1R
T1 construct: expressed in transfected cells; host or cells: BHK cells (parent BHKTS13), clone FCW467-12A/KZ10-1, with CRE luciferase
Protocol: The purpose of this assay was to test the in vitro receptor binding activity of the glucagon derivatives of the invention. The receptor binding is a measure of affinity of a compound for the human GLP-1 receptor.
The receptor binding of each compound to the human GLP-1 receptor was measured in a displacement binding assay. In this type of assay a labelled ligand (in this case 125I-GLP-1) is bound to the receptor. Each derivative was added in a series of concentrations to isolated membranes containing the human GLP-1 receptor and displacement of the labelled ligand was monitored. The receptor binding was reported as the concentration at which half of the labelled ligand was displaced from the receptor, the IC50 value.
In order to test the binding of the derivatives to albumin, the assay may be performed in a very low concentration of serum albumin (max. 0.001% final assay concentration) as well as in the presence of a higher concentration of serum albumin (2.0% final assay concentration). An increase of the IC50 value, in the presence of serum albumin indicates an affinity to serum albumin and represents a method to predict a protracted pharmacokinetic profile of the test substance in animal models.
The following chemicals were used in the assay: DMEM w/o phenol red (Gibco 11880-028), Pen/strep (Invitrogen 15140-122), G418 (Invitrogen 10131-027), 1 M Hepes (Gibco 15630), EDTA (Invitrogen 15575-038), PBS (Invitrogen 14190-094), fetal calf serum (Invitrogen 16140-071), EGTA, MgCl2 (Merck 1.05832.1000), Tween 20 (Amresco 0850C335), SPA particles (wheat germ agglutinin (WGA) SPA beads, Perkin Elmer RPNQ0001), [125I]-GLP-1]-(7-36)NH2 (produced in-house), OptiPlate™-96 (Perkin Elmer).
Buffer 1 consisted of 20 mM Na-HEPES plus 10 mM EDTA and pH was adjusted to 7.4.
Buffer 2 consisted of 20 mM Na-HEPES plus 0.1 mM EDTA and pH was adjusted to 7.4.
Assay buffer consisted of 50 mM HEPES supplemented with 5 mM EGTA, 5 mM MgCl2, 0.005% Tween 20 and pH was adjusted to 7.4.
The cells used in this assay (clone FCW467-12A) were BHK cells with BHKTS13 as a parent cell line. The cells express the human GLP-1 receptor.
The cells were grown at 5% CO2 in DMEM, 10% fetal calf serum, 1% Pen/Strep (Penicillin/Streptomycin) and 1.0 mg/ml of the selection marker G418. To make a membrane preparation the cells were grown to approximately 80% confluence. The cells were washed twice in phosphate-buffered saline and harvested. The cells were pelleted using a brief centrifugation and the cell pellet was kept on ice. The cell pellet was homogenised with ULTRA-THURRAX dispersing instrument for 20-30 sec in a suitable amount of buffer 1 (e.g. 10 ml). The homogenate was centrifuged for 15 min. The pellet was re-suspended (homogenised) in 10 ml buffer 2 and centrifuged. This step was repeated once more. The resulting pellet was re-suspended in buffer 2 and the protein concentration was determined. The membranes were aliquoted and stored at minus 80° C.
1. For the receptor binding assay, 50 μl of the assay buffer was added to each well of an assay plate.
2. Test compounds were serially diluted to give the following concentrations: 8×10EE-7 M, 8×10EE-8 M, 8×10EE-9 M, 8×10EE-10 M, 8×10EE-11 M, 8×10EE-12 M and 8×10EE-13 M. Twenty-five μl were added to appropriate wells in the assay plate.
3. Cell membrane aliquots were thawed and diluted to their working concentration. Fifty μl were added to each well in the assay plate.
4. WGA SPA beads were suspended in assay buffer at 20 mg/ml. The suspension was diluted to 10 mg/ml in assay buffer just prior to addition to the assay plate. Fifty μl were added to each well in the assay plate.
5. The incubation was started by adding 25 μl of 480 pM solution of [125I]-GLP-1]-(7-36)NH2 to each well of the assay plate. A 25 μl aliquot was reserved for measuring total counts/well.
6. The assay plate was incubated for 2 h at 30° C.
7. The assay plate was centrifuged for 10 min.
8. The assay plate was read in a Perkin Elmer TopCount NXT instrument. […]

T1 sequence (P43220 24-463): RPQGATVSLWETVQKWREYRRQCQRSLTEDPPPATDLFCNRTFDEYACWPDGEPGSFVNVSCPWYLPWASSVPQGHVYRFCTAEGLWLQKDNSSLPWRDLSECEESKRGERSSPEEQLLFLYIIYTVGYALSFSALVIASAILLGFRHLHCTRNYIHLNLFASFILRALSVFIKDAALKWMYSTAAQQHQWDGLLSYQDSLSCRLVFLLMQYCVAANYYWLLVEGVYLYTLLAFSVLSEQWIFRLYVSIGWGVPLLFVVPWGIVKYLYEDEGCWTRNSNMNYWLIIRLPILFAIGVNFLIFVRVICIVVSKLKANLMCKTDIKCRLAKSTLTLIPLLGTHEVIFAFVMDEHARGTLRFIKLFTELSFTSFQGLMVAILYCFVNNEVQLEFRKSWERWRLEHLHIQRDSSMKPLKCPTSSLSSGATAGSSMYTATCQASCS

| THT assay Lag time (Ex. 76) [1] [h] | IC50 [2] [nM] | Structure (SMILES) |
| --- | --- | --- |
| 45 | 0.2 | CC(C)C[C@H](NC(=O)[C@H](Cc1c[nH]c2ccccc12)NC(=O)[C@H](C)NC(=O)[C@@H](NC(=O)[C@H](Cc1ccccc1)NC(=O)[C@H](CCC(=O)O)NC(=O)[C@H](CCCNC(=N)N)NC(=O)[C@H](C)NC(=O)[C@H](C)NC(=O)[C@H](CCCCN)NC(=O)[C@H](CCCCNC(=O)CC[C@H](NC(=O)CC[C@H](NC(=O)COCCOCCNC(=O)COCCOCCNC(=O)CC[C@H](NC(=O)CCCCCCCCCCCCCCCCC(=O)O)C(=O)O)C(=O)O)C(=O)O)NC(=O)[C@H](CC(=O)O)NC(=O)[C@H](CC(C)C)NC(=O)[C@H](Cc1ccc(O)cc1)NC(=O)[C@H](CCCCN)NC(=O)[C@H](CO)NC(=O)[C@H](CC(C)C)NC(=O)[C@H](CC(=O)O)NC(=O)[C@H](CO)NC(=O)[C@@H](NC(=O)[C@H](Cc1ccccc1)NC(=O)[C@@H](NC(=O)CNC(=O)[C@H](CCC(N)=O)NC(=O)C(C)(C)NC(=O)[C@@H](N)Cc1c[nH]cn1)[C@@H](C)O)[C@@H](C)O)C(C)C)C(=O)N[C@@H](CC(C)C)C(=O)N[C@@H](CC(N)=O)C(=O)N[C@H](C(N)=O)[C@@H](C)O [Example 17, N^ε29-[(4S)-4-carboxy-4-[[(4S)-4-carboxy-4-[[2-[2-[2-[[2-[2-[2-[[(4S)-4-carboxy-4-(17-carboxyheptadecanoylamino)butanoyl]amino]ethoxy]ethoxy]acetyl]amino]ethoxy]ethoxy]acetyl]amino]butanoyl]amino]butanoyl]-[Aib2,Leu10,Lys16,Lys17,Ala18,Arg20,Glu21,Ala24, Leu27]-Glucagon amide] (H-H[Aib]QGTFTSDLSKYLDK([γGlu-γGlu-AEEA-AEEA-γGlu-C18 diacid])KAAREFVAWLLNT-NH2) |
| 28 | 0.2 | CC(C)C[C@H](NC(=O)[C@H](Cc1ccc(O)cc1)NC(=O)[C@H](CCCCN)NC(=O)[C@H](CO)NC(=O)[C@H](CC(C)C)NC(=O)[C@H](CC(=O)O)NC(=O)[C@H](CO)NC(=O)[C@@H](NC(=O)[C@H](Cc1ccccc1)NC(=O)[C@@H](NC(=O)CNC(=O)[C@H](CCC(N)=O)NC(=O)C(C)(C)NC(=O)[C@@H](N)Cc1c[nH]cn1)[C@@H](C)O)[C@@H](C)O)C(=O)N[C@@H](CCC(=O)O)C(=O)N[C@@H](CO)C(=O)N[C@@H](CCCCN)C(=O)N[C@@H](C)C(=O)N[C@@H](C)C(=O)N[C@@H](CCCNC(=N)N)C(=O)N[C@@H](CCC(=O)O)C(=O)N[C@@H](Cc1ccccc1)C(=O)N[C@H](C(=O)N[C@@H](CCC(N)=O)C(=O)N[C@@H](Cc1c[nH]c2ccccc12)C(=O)N[C@@H](CC(C)C)C(=O)N[C@@H](CC(C)C)C(=O)N[C@@H](CCCCNC(=O)CC[C@H](NC(=O)CC[C@H](NC(=O)COCCOCCNC(=O)COCCOCCNC(=O)CC[C@H](NC(=O)CCCCCCCCCCCCCCCCC(=O)O)C(=O)O)C(=O)O)C(=O)O)C(=O)N[C@H](C(N)=O)[C@@H](C)O)C(C)C [Example 24, N^ε28-[(4S)-4-carboxy-4-[[(4S)-4-carboxy-4-[[2-[2-[2-[[2-[2-[2-[[(4S)-4-carboxy-4-(17-carboxyheptadecanoylamino)butanoyl]amino]ethoxy]ethoxy]acetyl]amino]ethoxy]ethoxy]acetyl]amino]butanoyl]amino]butanoyl]-[Aib2,Leu10,Glu15,Lys17,Ala18,Arg20,Glu21,Leu27, Lys28]-Glucagon amide] (H-H[Aib]QGTFTSDLSKYLESKAAREFVQWLLK([γGlu-γGlu-AEEA-AEEA-γGlu-C18 diacid])T-NH2; N-terminus assumed) |
| 8 | 0.2 | CC(C)C[C@H](NC(=O)[C@H](CC(C)C)NC(=O)[C@H](Cc1c[nH]c2ccccc12)NC(=O)[C@H](CCC(N)=O)NC(=O)[C@@H](NC(=O)[C@H](Cc1ccccc1)NC(=O)[C@H](CCC(=O)O)NC(=O)[C@H](CCCNC(=N)N)NC(=O)[C@H](C)NC(=O)[C@H](C)NC(=O)[C@H](CCCNC(=N)N)NC(=O)[C@H](CO)NC(=O)[C@H](CC(=O)O)NC(=O)[C@H](CC(C)C)NC(=O)[C@H](Cc1ccc(O)cc1)NC(=O)[C@H](CCCCN)NC(=O)[C@H](CO)NC(=O)[C@H](CC(C)C)NC(=O)[C@H](CC(=O)O)NC(=O)[C@H](CO)NC(=O)[C@@H](NC(=O)[C@H](Cc1ccccc1)NC(=O)[C@@H](NC(=O)CNC(=O)[C@H](CCC(N)=O)NC(=O)C(C)(C)NC(=O)[C@@H](N)Cc1c[nH]cn1)[C@@H](C)O)[C@@H](C)O)C(C)C)C(=O)N[C@@H](CC(N)=O)C(=O)N[C@@H](CCCCNC(=O)CC[C@H](NC(=O)CC[C@H](NC(=O)COCCOCCNC(=O)COCCOCCNC(=O)CC[C@H](NC(=O)CCCCCCCCCCCCCCCCC(=O)O)C(=O)O)C(=O)O)C(=O)O)C(N)=O [Example 9, N^ε29-[(4S)-4-carboxy-4-[[(4S)-4-carboxy-4-[[2-[2-[2-[[2-[2-[2-[[(4S)-4-carboxy-4-(17-carboxyheptadecanoylamino)butanoyl]amino]ethoxy]ethoxy]acetyl]amino]ethoxy]ethoxy]acetyl]amino]butanoyl]amino]butanoyl]-[Aib2,Leu10,Ala18,Arg20,Glu21,Leu27,Lys29]-Glucagon amide] (H-H[Aib]QGTFTSDLSKYLDSRAAREFVQWLLNK([γGlu-γGlu-AEEA-AEEA-γGlu-C18 diacid])-NH2; N-terminus assumed) |
